{
  "source": "patent US20040014217A1",
  "about": "“Methods of transfection” (priority 2000, published 2004)",
  "key": {"[1]": {"tested_on": "Human airway epithelial (HAE) cells", "test": "BrdU labelling of HAE cells, Example 13", "type": "cell-based", "procedure": "Bromodeoxyuridine (BrdU) labelling enables assessment of cell proliferation. BrdU kits are available from Zymed Laboratories, Inc., South San Francisco, Calif., U.S.A. BrdU was added to the cells at the same time as the transfection reagent and was maintained throughout the rest of the experiment until cell harvesting."}, "[2]": {"tested_on": "1HAEo-cells", "test": "BrdU incorporation by flow cytometry, 1HAEo- cells", "type": "cell-based, human", "conditions": "EGTA 2 mM, aphidicolin 10 μg/ml where present", "procedure": "A BrdU Labelling and Detection Kit (Roche, Basel, Switzerland) was used, which contains the BrdU labelling reagent and the monoclonal mouse anti-BrdU. […] Cells were washed with PBS and incubated with a second layer antibody, Texas Red labelled horse anti-mouse IgG (Vector Laboratories, Peterborough, UK), for 30 minutes at 37° C. and then analysed by flow cytometry at the wavelength of 575±20 nm as detailed above. In some experiments, aphidicolin, a cell-proliferation inhibitor blocking the cell cycle in S-phase, was added to the cells to observe the effects on transfection efficiency."}, "[3]": {"tested_on": "integrins", "conditions": "cited from earlier work"}, "[4]": {"tested_on": "ECV304 cells", "test": "Luciferase (pGL2) transfection of ECV304 cells", "type": "cell-based, human", "conditions": "LID complexes, 40 μg total [K]16-peptide; luciferase after 48 hours", "procedure": "Cells were seeded into 24-well plates at 5×10^4 cells per well then incubated overnight at 37° C. in complete growth medium. The following day, transfection complexes were made from the following stock solutions, all prepared in OptiMEM (Life Technologies, Paisley, U. K.), lipofectin (an equimolar mixture of the cationic lipid N-[1-(2,3-dioleyloxy)propyl]-N,N,N-trimethylammonium chloride (DOTMA) and the neutral lipid dioleoyl phosphatidylethanolamine (DOPE), obtained as “Lipofectin” from Life Technologies, Paisley, U.K.) (1 mg/ml), pGL2-control (1 mg/100 ml) and [K]16]/integrin-targeting peptide 1, 5 or 6 (0.1 mg/ml).\nComplexes were made usually with three components: oligolysine-peptide (I), plasmid DNA or RNA (D) and lipofectin (L), by mixing together the different components with an automatic pipette. […]\nCells transformed with pGL2 were washed twice with PBS to remove serum then 100 microlitres of Reporter Lysis Buffer (Promega, Madison, Wis, U.S.A.) was added to each well and placed at […] for 15 to 30 minutes. […] Total light emission was measured for 60 seconds on an LKB 1251 Luminometer (Labtech, Uckfield, U.K.). The protein concentration of each sample was then determined with Protein Assay Reagent (BioRad, Hercules, Calif., U.S.A.) and luciferase enzyme activity expressed in terms of relative light units per milligram of protein (RLU/mg). […]"}, "[5]": {"tested_on": "human lung fibroblasts (HFL-1 cells)", "test": "Thrombin-induced proliferation of HFL-1 cells after antisense (PAR-1) transfection", "type": "cell-based", "procedure": "Thrombin stimulates proliferation of human lung fibroblasts. Thrombin-treated human lung fibroblasts (HFL-1 cells) proliferated 53% in response to thrombin. 24 hours before treatment with thrombin, HFL-1 cells were treated with an LID complex comprising [K]16-peptide 6, lipofectin and a 20-mer antisense oligonucleotide directed against the thrombin receptor PAR-1 in the optimal ratio and mixing order prepared as described in the Materials and Methods section and the Examples above. The antisense oligonucleotide-containing complex was in contact with the cells for 4 hours. 24 hours after the start of the treatment with the complex, treatment with thrombin was carried out."}},
  "data": [
    {"compound": "O=c1[nH]c(=O)n([C@H]2C[C@H](O)[C@@H](CO)O2)cc1Br", "note": "[BrdU, 5-Bromo-2′-deoxy-uridine]", "values": [
      {"measurement": "BrdU labelling, Confluent cells", "setting": "[1]", "value": 7.1, "unit": "%"},
      {"measurement": "BrdU labelling, Sub-confluent cells", "setting": "[1]", "value": 44.4, "unit": "%"},
      {"measurement": "BrdU-positive cells, confluent 1HAEo- cells", "setting": "[2]", "value": 7.1, "unit": "%"},
      {"measurement": "BrdU-positive cells, sub-confluent 1HAEo- cells", "setting": "[2]", "value": 43.0, "unit": "%"}
    ]},
    {"compound": "C[C@@]1(CO)[C@H](O)CC[C@@]2(C)[C@H]1CC[C@H]1C[C@@H]3C[C@@]12CC[C@]3(O)CO", "note": "[aphidicolin, Aphidicolin]", "values": [
      {"measurement": "BrdU-positive cells, confluent 1HAEo- cells", "setting": "[2]", "value": 5, "unit": "%"},
      {"measurement": "BrdU-positive cells, sub-confluent 1HAEo- cells", "setting": "[2]", "value": 7, "unit": "%"}
    ]},
    {"compound": "GACDCRGDCFCA [Peptide 5]", "values": [
      {"measurement": "integrin specificity", "setting": "[3]", "value": "(αv)"}
    ]},
    {"compound": "[K]16GACRRETAWACG (KKKKKKKKKKKKKKKKGACRRETAWACG) [oligolysine-peptide 6]", "values": [
      {"measurement": "transfection efficiency with increasing amounts of oligolysine-peptide 6 replacing [K]16", "setting": "[4]", "value": "apparently exponential increase"}
    ]},
    {"compound": "thrombin", "values": [
      {"measurement": "proliferation in response to thrombin", "setting": "[5]", "value": 53, "unit": "%"}
    ]}
  ]
}
